d = 2'-deoxy (DNA); r = 2'-OH (RNA)
How the values were obtained:
[1] = tested on: FAK; experiment: FAK down-regulation by siRNA in vitro, Western blot; assay type: cell-based, human; conditions: for suppression of FAK expression: SKOV3, 72 hours of transfection
Experimental: siRNAs were synthesized and then purified using high-performance liquid chromatgraphy (Qiagen-Xeragon, Germantown, Md.). FAK siRNA sense: r(CCACCUGGGCCAGUAUUAU)d(TT) (SEQ ID NO:7); antisense: r(AUAAUACUGGCCCAGGUGG)d(TT) (SEQ ID NO:8) and control siRNA sense: r(UUUUCCGAACGUGUCACGU)dTT; (SEQ ID NO:9) antisense: r(ACGUGACACGUUCGGAGAA)dTT (SEQ ID NO:10) bearing no sequence homology with any known human mRNA sequences were dissolved in buffer (100 mmol/L potassium acetate, 30 mmol/L HEPES potassium hydroxide, 2 mmol/L magnesium acetate, pH 7.4) to a final concentration of […], heated to 90° C. for 60 seconds, incubated at 37° C. for 60 minutes, and stored at −20° C. until future use.
Cells were lysed in modified RIPA buffer (50 mM Tris, 150 mM NaCl, 1% triton, 0.5% deoxycholate plus 25 µg/ml leupeptin, 10 µg/ml aprotinin, 2 mM EDTA, and 1 mM sodium orthovanadate (Sigma Chemical Co, St. Louis, Mo.) as previously described (Sood et al., 2004; Sood et al., 2002). A sample was removed from culture dishes by cell scraping and centrifuged at 12,500 rpm for 30 min. The […] protein concentration of the supernatant was determined using a bicinchoninic acid protein assay reagent kit (Pierce, Rockford, Ill.), and whole cell lysates were analyzed by 7.5% SDS-PAGE. Samples were then transferred to nitrocellulose membrane by semi-dry transfer (BioRad Laboratories, Hercules, Calif.). Membranes were blocked with 5% nonfat milk, and incubated with 0.25 μg/mL anti-FAK antibody (Biosource, International Camarillo, Calif.) for 1 h at room temperature. Antibody was detected with 0.167 μg/mL HRP-conjugated anti-mouse secondary antibody (The Jackson Laboratory, Bar Harbor, Me.) and developed with an enhanced chemiluminescence detection kit (Pierce). Equal loading was confirmed by detection of β-actin (0.1 μg/ml, anti-β-actin antibody, Sigma Chemical). Densitometric analysis was performed using the Scion Imaging software (Scion Corporation, Frederick, Md.).
Next, the inventors sought to examine whether FAK silencing using siRNA will sensitize ovarian cancer cells to docetaxel.

[2] = tested on: HeyA8 cells; experiment: Chronic restraint stress, HeyA8 orthotopic tumor growth; assay type: in vivo, nude mice; conditions: siRNA in DOPC three times per week
Text: Mice habituated to vivarium conditions for 1 week before the initiation of stress procedures. A restraint-stress procedure was used based on previous studies (Sheridan et al., 1991), substituting a novel Mouse Restraint System (FIG. 15A) for conical centrifuge tubes. In this system, up to 10 mice are placed in individual slots, and each slot can be adjusted to restrain the animal for a desired length of time. In the present study, restraint stress began between 8 a.m. and 10 a.m., and lasted for 2-6 hours for up to 21 days. […] Immunohistochemistry and H&E staining procedures were carried out on formalin-fixed paraffin-embedded tumors. […] Pumps were inserted on the nape of the neck 7 days prior to initiation of restraint stress for 2 hours daily. Mice were anesthetized with inhaled methoxyflurane (Medical Developments Australia Pty. Ltd, Melbourne, Australia), and implanted with Alzet pumps containing PBS or S-propranolol hydrochloride (Sigma Co., St. Louis, Mo.) diluted in PBS at a dose of 2 mg/kg/day, which allows for chronic continuous receptor blockade, for 28 days (Aarons and Molinoff, 1982; Exton et al., 2002).

[3] = tested on: SKOV3 cells; experiment: TUNEL apoptosis assay, SKOV3; assay type: cell-based, human; conditions: sensitive and resistant cell lines
Experimental: Terminal deoxynucleotidyl transferase-mediated nick end labeling-positive cells were detected using Dead End Fluorometric terminal deoxynucleotidyl transferase-mediated nick end labeling system (APO-DIRECT, BD Biosciences/PharMingen, San Diego, Calif.) according to the manufacturer's instructions. […] Cells were fixed with 4% paraformaldehyde solution for 25 minutes on ice. Intracellular DNA fragments were then labeled by exposing cells to fluorescein-12-dUTP, treated with propidium iodide and RNaseA solution, and analyzed by flow cytometry (EPICS XL, Beckman Coulter, Miami, Fla.). The percentages of apoptotic cells were averaged over three consecutive experiments.

[4] = tested on: SKOV3-TR and HeyA8-MDR cells; experiment: TUNEL apoptosis assay, taxane-resistant cells; assay type: cell-based, human; conditions: FAK siRNA with or without docetaxel
Experimental: Terminal deoxynucleotidyl transferase-mediated nick end labeling-positive cells were detected using Dead End Fluorometric terminal deoxynucleotidyl transferase-mediated nick end labeling system (APO-DIRECT, BD Biosciences/PharMingen, San Diego, Calif.) according to the manufacturer's instructions. Briefly, ovarian cancer cells in culture were treated with varying concentrations of docetaxel and harvested after 12, 24, 48, or 96 hours. Cells were fixed with 4% paraformaldehyde solution for 25 minutes on ice. Intracellular DNA fragments were then labeled by exposing cells to fluorescein-12-dUTP, treated with propidium iodide and RNaseA solution, and analyzed by flow cytometry (EPICS XL, Beckman Coulter, Miami, Fla.). The percentages of apoptotic cells were averaged over three consecutive experiments.

[5] = tested on: SKOV3-TR cells; experiment: Cytotoxicity assay (MTT), SKOV3-TR; assay type: cell-based, human; conditions: SKOV3-TR; siRNA 48 hours before docetaxel
Experimental: (§1) The medium was exchanged after 48 hours with increasing concentrations of docetaxel (obtained from Aventis Pharma, Bridgewater, N.J.) dissolved in ethanol (final concentration range, 0.1-10,000 nmol/L prepared in medium) or cisplatin (purchased from LKT Laboratories, Inc., St. Paul, Minn.) dissolved in water. After a 96-hour incubation, 50 μL of 0.15% 3-(4,5-dimethylthiazol-2-yl)-2,5-diphenyltetrazolium bromide was added to each well and incubated for 2 hours. The supernatant was removed, and cells were dissolved in 100 μL DMSO. The absorbance at 570 nm was recorded using a FALCON microplate reader (Becton Dickinson Labware, Bedford, Mass.), and cell survival expressed as a percent increase or decrease above control conditions, after subtracting blank A570 readings. The IC50 concentration was determined by finding the A570 reading midpoint between maximal and minimal readings and finding the chemotherapy concentration that intersects the growth curve at that A570 reading.

[6] = tested on: HeyA8-MDR cells; experiment: Cytotoxicity assay (MTT), HeyA8-MDR; assay type: cell-based, human; conditions: HeyA8-MDR; siRNA 48 hours before docetaxel
Experimental: as §1

Substance	FAK expression compared with untreated cells ([1]; SKOV3)	effect on stress induced increase in tumor weight, nodules and metastasis [2]	apoptosis in combination with docetaxel [3]	suppression of FAK expression [1]	suppression of FAK expression ([1]; listed as FAK-specific siRNA)	FAK expression ([1]; after 24 hours of treatment)	apoptosis [4]	fold increase in sensitivity to docetaxel [5]	fold increase in sensitivity to docetaxel [6]
control siRNA: sense r(UUUUCCGAACGUGUCACGU)dTT, antisense r(ACGUGACACGUUCGGAGAA)dTT, no homology with human mRNA; in vivo in DOPC (sense UUUUCCGAACGUGUCACGUTT; antisense ACGUGACACGUUCGGAGAATT; sugars from the 5' end r19 d2, backbone not given here)	did not significantly affect FAK expression	failed to block stress-induced enhancement of tumor weight and nodules	did not enhance apoptosis in combination with docetaxel						
FAK siRNA: sense r(CCACCUGGGCCAGUAUUAU)d(TT), antisense r(AUAAUACUGGCCCAGGUGG)d(TT); for in vivo delivery incorporated into DOPC (sense CCACCUGGGCCAGUAUUAUTT; antisense AUAAUACUGGCCCAGGUGGTT; sugars from the 5' end r19 d2, backbone not given here)				90%	> 90%	detectable decrease in FAK expression	neither agent alone induced much apoptosis	4.8 fold	5.5 fold

From patent US8895717B2, “Delivery of siRNA by neutral lipid compositions” (The Board of Regents of the University of Texas System, priority 2005, dated 2014)
